Measured values taken from patent publication US20050085463A1 (priority 2003, published 2005).

What was measured:
M1 muscarinic receptor [1] = target: T1, M1 muscarinic receptor (Homo sapiens, UniProt P11229); assay: cell-based
T1 sequence (P11229 1-460): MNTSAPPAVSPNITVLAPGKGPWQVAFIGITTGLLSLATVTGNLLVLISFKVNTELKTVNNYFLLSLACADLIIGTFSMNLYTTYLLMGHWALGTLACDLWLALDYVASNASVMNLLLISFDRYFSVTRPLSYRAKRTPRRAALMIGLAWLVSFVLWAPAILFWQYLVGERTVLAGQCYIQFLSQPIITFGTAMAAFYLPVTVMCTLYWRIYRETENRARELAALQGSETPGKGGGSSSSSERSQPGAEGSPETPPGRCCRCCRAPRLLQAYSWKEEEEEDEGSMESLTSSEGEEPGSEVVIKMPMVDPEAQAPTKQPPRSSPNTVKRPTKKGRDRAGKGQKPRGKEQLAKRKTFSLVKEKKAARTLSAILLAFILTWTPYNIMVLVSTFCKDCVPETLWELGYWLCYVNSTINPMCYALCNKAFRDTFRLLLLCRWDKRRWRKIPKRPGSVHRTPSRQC

[2] = target: α2A (Alpha 2A) adrenergic receptor (Homo sapiens, UniProt P08913); assay: R-SAT competitive antagonist assay; conditions: nr = no significant antagonist or inverse agonist activity up to 1 μM, nr* = nr but significant agonist activity
Sequence of α2A (Alpha 2A) adrenergic receptor (P08913 whole entry): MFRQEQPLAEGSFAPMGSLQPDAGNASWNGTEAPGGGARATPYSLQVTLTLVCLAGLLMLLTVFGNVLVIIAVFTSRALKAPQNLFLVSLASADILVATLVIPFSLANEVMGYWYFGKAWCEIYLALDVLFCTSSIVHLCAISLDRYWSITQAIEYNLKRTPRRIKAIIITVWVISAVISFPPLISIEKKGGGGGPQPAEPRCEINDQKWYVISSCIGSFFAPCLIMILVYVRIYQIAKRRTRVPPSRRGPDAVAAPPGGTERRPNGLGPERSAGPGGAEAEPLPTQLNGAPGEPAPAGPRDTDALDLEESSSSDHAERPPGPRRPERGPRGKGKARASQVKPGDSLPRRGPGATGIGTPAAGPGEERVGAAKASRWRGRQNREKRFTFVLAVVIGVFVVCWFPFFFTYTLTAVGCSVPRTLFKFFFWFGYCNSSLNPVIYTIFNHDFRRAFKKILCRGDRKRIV

δ2 receptors = δ2 receptors (Homo sapiens, UniProt P41143); assay: Ligand binding screen at 10 μM
Sequence of δ2 receptors (P41143 whole entry): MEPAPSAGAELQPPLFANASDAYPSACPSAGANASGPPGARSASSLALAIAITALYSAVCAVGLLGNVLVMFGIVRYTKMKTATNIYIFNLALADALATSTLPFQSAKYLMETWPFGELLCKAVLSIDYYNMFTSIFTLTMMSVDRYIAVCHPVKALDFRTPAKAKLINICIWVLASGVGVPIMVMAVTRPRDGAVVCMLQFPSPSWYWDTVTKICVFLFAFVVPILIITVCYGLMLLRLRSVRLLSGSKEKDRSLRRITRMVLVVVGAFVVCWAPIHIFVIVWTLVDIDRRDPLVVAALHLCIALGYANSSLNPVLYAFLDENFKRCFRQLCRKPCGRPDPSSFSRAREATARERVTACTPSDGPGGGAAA

α2 receptors = assay: Ligand binding screen at 10 μM
5-HT2C receptor = 5-HT2C receptor (Homo sapiens, UniProt P28335); assay: R-SAT competitive antagonist assay
Sequence of 5-HT2C receptor (P28335 33-458): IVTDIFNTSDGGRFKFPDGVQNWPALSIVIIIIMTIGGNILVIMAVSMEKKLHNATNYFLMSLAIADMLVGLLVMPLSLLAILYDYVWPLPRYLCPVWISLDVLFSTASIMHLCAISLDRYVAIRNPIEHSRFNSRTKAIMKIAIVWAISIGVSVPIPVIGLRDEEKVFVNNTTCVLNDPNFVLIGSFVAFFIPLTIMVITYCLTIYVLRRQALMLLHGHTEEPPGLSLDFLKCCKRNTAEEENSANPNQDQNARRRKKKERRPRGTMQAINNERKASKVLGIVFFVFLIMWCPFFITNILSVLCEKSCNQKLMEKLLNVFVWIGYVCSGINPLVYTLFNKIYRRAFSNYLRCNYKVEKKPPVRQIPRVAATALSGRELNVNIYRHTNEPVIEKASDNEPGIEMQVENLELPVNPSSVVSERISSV

5-HT7A receptor = 5-HT7A receptor (Homo sapiens, UniProt P34969); assay: R-SAT inverse agonist assay
Sequence of 5-HT7A receptor (P34969 1-445 isoform P34969-2): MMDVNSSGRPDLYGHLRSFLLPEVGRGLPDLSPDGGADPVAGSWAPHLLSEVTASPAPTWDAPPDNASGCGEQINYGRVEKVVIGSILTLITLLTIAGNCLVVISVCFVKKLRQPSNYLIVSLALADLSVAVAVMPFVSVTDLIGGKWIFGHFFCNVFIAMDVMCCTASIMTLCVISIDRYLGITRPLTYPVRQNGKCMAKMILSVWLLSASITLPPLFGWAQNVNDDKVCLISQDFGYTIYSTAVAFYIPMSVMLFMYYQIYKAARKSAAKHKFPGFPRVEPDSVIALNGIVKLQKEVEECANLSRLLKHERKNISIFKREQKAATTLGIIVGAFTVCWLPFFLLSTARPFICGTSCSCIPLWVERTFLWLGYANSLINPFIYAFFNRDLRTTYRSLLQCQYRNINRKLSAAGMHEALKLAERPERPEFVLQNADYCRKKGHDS

H1 receptors = H1 receptors (Homo sapiens, UniProt P35367); assay: Ligand binding screen at 10 μM
Sequence of H1 receptors (P35367 whole entry): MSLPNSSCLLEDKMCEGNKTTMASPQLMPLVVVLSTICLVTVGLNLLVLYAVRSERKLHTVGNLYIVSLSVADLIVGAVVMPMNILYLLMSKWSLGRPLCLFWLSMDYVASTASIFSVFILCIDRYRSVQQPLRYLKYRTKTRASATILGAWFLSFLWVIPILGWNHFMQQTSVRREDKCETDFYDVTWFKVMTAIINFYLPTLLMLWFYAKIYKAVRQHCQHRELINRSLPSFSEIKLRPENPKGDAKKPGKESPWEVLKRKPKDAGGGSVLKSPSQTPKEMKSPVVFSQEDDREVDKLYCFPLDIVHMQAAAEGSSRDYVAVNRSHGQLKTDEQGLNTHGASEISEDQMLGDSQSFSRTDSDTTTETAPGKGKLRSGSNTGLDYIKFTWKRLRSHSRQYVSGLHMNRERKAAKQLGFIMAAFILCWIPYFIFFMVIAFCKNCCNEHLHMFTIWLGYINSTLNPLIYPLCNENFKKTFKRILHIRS

α1 receptors = assay: Ligand binding screen at 10 μM
D2 dopamine receptor = D2 dopamine receptor (Homo sapiens, UniProt P14416); assay: R-SAT competitive antagonist assay
Sequence of D2 dopamine receptor (P14416 whole entry): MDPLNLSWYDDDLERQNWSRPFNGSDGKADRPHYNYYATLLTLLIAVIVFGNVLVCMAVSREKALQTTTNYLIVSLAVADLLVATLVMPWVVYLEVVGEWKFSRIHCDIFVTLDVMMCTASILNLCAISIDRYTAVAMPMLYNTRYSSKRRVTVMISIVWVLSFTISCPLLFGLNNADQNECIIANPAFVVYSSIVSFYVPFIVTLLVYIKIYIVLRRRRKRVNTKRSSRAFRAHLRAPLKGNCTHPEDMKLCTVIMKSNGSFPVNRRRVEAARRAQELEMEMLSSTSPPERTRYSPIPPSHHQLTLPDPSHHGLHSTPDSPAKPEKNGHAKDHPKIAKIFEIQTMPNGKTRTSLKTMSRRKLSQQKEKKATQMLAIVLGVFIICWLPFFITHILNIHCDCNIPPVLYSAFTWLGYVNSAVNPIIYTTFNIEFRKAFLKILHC

Ca^2+ channels = assay: Ligand binding screen at 10 μM
M1 muscarinic receptor [3] = target: T1, M1 muscarinic receptor; assay: R-SAT competitive antagonist assay; assay type: cell-based; design: expressed in transfected cells; host or cells: NIH/3T3; conditions: nr = no significant antagonist or inverse agonist activity up to 1 μM, nr* = nr but significant agonist activity
5HT1B receptors = 5HT1B receptors (Homo sapiens, UniProt P28222); assay: Ligand binding screen at 10 μM
Sequence of 5HT1B receptors (P28222 whole entry): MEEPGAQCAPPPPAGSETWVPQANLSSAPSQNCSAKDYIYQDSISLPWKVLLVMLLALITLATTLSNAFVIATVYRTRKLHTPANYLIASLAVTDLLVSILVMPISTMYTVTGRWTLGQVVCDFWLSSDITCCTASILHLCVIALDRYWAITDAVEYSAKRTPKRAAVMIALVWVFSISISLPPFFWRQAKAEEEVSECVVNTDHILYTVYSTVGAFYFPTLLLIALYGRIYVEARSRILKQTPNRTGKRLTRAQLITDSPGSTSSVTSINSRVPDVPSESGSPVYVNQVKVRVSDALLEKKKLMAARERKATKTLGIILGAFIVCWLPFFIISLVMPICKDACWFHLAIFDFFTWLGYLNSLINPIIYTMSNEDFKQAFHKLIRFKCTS

M3 muscarinic receptor = M3 muscarinic receptor (Homo sapiens, UniProt P20309); assay: R-SAT competitive antagonist assay; assay type: cell-based; conditions: nr = no significant antagonist or inverse agonist activity up to 1 μM, nr* = nr but significant agonist activity, read-out: pKi M3, competitive antagonist (converted)
Sequence of M3 muscarinic receptor (P20309 whole entry): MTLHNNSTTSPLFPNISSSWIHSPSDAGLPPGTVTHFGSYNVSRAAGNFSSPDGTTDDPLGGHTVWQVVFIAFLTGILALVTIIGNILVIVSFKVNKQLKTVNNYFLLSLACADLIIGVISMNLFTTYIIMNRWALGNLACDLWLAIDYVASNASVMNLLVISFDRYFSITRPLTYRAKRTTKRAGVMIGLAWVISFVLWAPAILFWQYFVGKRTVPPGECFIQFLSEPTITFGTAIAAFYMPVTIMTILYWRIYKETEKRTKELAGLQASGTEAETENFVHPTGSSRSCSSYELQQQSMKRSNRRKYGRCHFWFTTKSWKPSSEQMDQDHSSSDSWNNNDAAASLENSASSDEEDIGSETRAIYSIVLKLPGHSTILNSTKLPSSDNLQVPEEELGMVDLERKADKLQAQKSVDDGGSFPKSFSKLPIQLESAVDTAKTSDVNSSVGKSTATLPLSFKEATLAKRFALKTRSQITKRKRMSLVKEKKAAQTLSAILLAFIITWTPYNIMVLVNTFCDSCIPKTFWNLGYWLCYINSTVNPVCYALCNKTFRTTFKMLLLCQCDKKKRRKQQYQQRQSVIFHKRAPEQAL

5-HT1A receptor = target: T2, 5-HT1A receptor (Homo sapiens, UniProt P08908); assay: Ligand binding screen at 10 μM
T2 sequence (P08908 1-422): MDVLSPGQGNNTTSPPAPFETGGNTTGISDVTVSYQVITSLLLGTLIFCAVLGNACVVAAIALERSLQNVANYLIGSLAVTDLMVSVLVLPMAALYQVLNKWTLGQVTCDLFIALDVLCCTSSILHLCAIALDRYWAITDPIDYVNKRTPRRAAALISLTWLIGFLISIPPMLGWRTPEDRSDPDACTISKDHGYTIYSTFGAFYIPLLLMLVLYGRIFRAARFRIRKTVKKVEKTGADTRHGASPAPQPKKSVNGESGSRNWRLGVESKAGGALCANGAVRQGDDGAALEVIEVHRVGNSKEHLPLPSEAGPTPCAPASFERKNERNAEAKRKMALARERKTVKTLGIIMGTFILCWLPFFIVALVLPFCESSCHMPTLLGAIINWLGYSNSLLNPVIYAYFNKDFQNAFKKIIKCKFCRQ

H1 histamine receptor = H1 histamine receptor (Homo sapiens, UniProt P35367); assay: R-SAT competitive antagonist assay
Sequence of H1 histamine receptor (P35367 whole entry): as the sequence (P35367 whole entry) above

[4] = target: T3, α1A (Alpha 1A) adrenergic receptor (Homo sapiens, UniProt P35348); assay: cell-based
T3 sequence (P35348 1-466): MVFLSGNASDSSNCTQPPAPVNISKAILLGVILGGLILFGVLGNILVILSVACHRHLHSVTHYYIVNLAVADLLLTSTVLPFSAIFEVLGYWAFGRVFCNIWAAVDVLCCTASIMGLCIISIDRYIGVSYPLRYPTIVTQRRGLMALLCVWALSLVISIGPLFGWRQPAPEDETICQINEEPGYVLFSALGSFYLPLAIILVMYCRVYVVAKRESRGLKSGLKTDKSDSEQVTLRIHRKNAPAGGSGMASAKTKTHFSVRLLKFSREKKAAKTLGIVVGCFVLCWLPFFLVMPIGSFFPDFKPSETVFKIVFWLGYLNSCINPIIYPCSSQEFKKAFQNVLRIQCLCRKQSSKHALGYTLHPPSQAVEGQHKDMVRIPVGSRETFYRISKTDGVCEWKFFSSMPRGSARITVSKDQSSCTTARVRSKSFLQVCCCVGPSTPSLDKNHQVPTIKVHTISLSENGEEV

[5] = R-SAT, nr = no significant antagonist or inverse agonist activity up to 1 μM, nr* = nr but significant agonist activity

`Clc1ccc2c(c1)N=C(N1CCNCC1)c1ccccc1N2` [NDMC, 8-chloro-11-(1-piperazinyl)-5H-dibenzo [b,e][1,4] diazepine] was tested, and the Emax (M1 muscarinic receptor [1]; CHO, read-out: M1 % Efficacy, PI hydrolysis, relative to carbachol) was 56%, the EC50 (M1 muscarinic receptor [1]; M1 pEC50, PI hydrolysis, agonist) was 0.2 µM and the EC50 (M1 muscarinic receptor [1]; potency, M1 agonist, PI hydrolysis, n=3) was 0.093 µM. The “pKi α2A, competitive antagonist” value [2] was “nr and nr^”, the inhibition at 10 µM (δ2 receptors) was no less than 90% and the “inhibition of binding, α2” value (α2 receptors) was no less than 90%. For the same compound, the Ki (5-HT2C receptor) was 0.0158 µM, the “pKi 5-HT2C, competitive antagonist” value (5-HT2C receptor; [5]) was 7.8 ± 0.2 and the EC50 (5-HT7A receptor) was 0.0501 µM. The “pEC50 5HT7A, inverse agonist” value (5-HT7A receptor; R-SAT, nr = no significant antagonist or inverse agonist activity up to 1 μM) was 7.3 ± 0.1, the inhibition at 10 µM (H1 receptors) was no less than 90% and the “inhibition of binding, α1” value (α1 receptors) was no less than 90%. For the same compound, the Ki (D2 dopamine receptor) was 0.0631 µM, the “pKi D2, competitive antagonist” value (D2 dopamine receptor; [5]) was 7.2 ± 0.1 and the “inhibition of binding, Ca^2+ channels” value (Ca^2+ channels) was no less than 90%. The “pKi M1, competitive antagonist” value (M1 muscarinic receptor [3]) was “nr*”, the inhibition at 10 µM (5HT1B receptors) was no less than 90% and the Ki (M3 muscarinic receptor) was 0.158 µM. The inhibition at 10 µM (5-HT1A receptor) was no less than 90%, the Ki (H1 histamine receptor) was 0.00631 µM and the “pKi H1, competitive antagonist” value (H1 histamine receptor; [5]) was 8.2 ± 0.2. For the same compound, the Ki [4] was 0.0501 µM.
